Results on 10 molecules are retold here after US20240150356A1, “Pyrimidine amide compounds and use thereof” (ALPHALA CO., LTD., priority 2019, published 2024).

Holding throughout (assay type): cell-based
Assay [1] concerns SW480 (colon adenocarcinoma cell line). The assay is described as follows: In vitro MTS cell viability assay (NCI-60 methodology), SW480. The note with it: Homo sapiens, SW480 cells, read-out: SW480 LC50. As to the method:
(§1) The cell viability measurement is based on the NCI-60 screening methodology (Nat. Rev. Cancer 6, 813-823, 2006). Briefly, cells are inoculated into 96-well plates at the optimal plating density. After 24 h, one of the two plates for Hep3B cell line is processed to determine a time zero cell viability (Tz) by MTS assay (Promega). Compounds are added over a 2-fold serial dilution to provide a total five drug concentrations plus DMSO control. Plates are incubated for a further 2 days, then measured cell viability by MTS assay [control growth (C) and test growth in the presence of drug at the five concentration levels (Ti)]. The LC50 is calculated from [(Ti−Tz)/Tz]×100=−50, which is the drug concentration resulting in a 50% reduction at the end of the drug treatment as compared to that at the beginning.
(§2) The compounds prepared in Tables 1-10 were tested in three in vitro assays, and the results are shown in Tables 1-10 for Hep3B and Table 11 for SW480 and NCI-H460 shown below. Herein, Hep3B refers to hepatocellular carcinoma cell line, SW480 refers to colon adenocarcinoma cell line, and NCI-H460 refers to human lung cancer cell line.
(§3) Shown in Tables 11 are in vitro activities of exemplary compounds of formula (I).
For orientation: Tetrazolium dyes change colour on reduction, which living cells bring about.

The test system of assay [2] is Hep3B cells (hepatocellular carcinoma cell line). The assay is described as follows: In vitro MTS cell viability assay (NCI-60 methodology), Hep3B. Particulars: Homo sapiens, 48 h, 2 days drug incubation, 50% reduction vs time zero, read-out: Hep3B LC50. Summed up: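 Hep3B cells given five 2-fold dilutions of compound for 2 days, with viability by MTS measured at time zero and at end. LC50 is the concentration giving a 50% fall in viable cells relative to the start of treatment, per NCI-60 formula.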

Assay [3] has as its system NCI-H460 (human lung cancer cell line). Briefly: In vitro MTS cell viability assay (NCI-60 methodology), NCI-H460. The note with it: NCI-H460 cells, read-out: NCI-H460 LC50. As to the method:
as §1, §2, §3

Like-named read-outs stand apart in the source and are kept apart here.

For orientation: LC50 means the concentration lethal to half of the exposed cells or organisms. For the molecule `CC(C)(C)OC(=O)N1CCC(n2ncc3c(NC(=O)c4ccc([N+](=O)[O-])s4)nc(-c4ccc(Cl)cc4)nc32)CC1` [Compound 9-5, tert-butyl 4-(6-(4-chlorophenyl)-4-(5-nitrothiophene-2-carboxamido)-1H-pyrazolo [3,4-d]pyrimidin-1-yl)piperidine-1-carboxylate], the CC50 was 2780 nM in assay [1] and 1300 nM in assay [3]. Also, in assay [2] (Table 9, MTS), the LC50 stood at 450 nM.
For `O=C(Nc1nc(-c2ccc(Cl)cc2)nc2c1cnn2-c1ccccc1)c1ccc([N+](=O)[O-])s1` [Compound 5-30, N-(6-(4-chlorophenyl)-1-phenyl-1H-pyrazolo[3,4-d]pyrimidin-4-yl)-5-nitrothiophene-2-carboxamide], the CC50 in assay [1] was 2690 nM; in assay [3] it was 540 nM. The LC50 in assay [2] (Table 5, MTS) was found to be 350 nM.
For `O=C(Nc1nc(-c2ccc(Cl)cc2)nc2c1cnn2-c1ccc(C(F)(F)F)cn1)c1ccc([N+](=O)[O-])s1` [Compound 7-3, N-(6-(4-chlorophenyl)-1-(5-(trifluoromethyl)pyridin-2-yl)-1H-pyrazolo[3,4-1]pyrimidin-4-yl)-5-nitrothiophene-2-carboxamide], the CC50 in assay [1] worked out at 530 nM; in assay [3], 400 nM. Moreover, the LC50 in assay [2] (Table 7, MTS) was 130 nM.
Regarding `CCOCCOCCOc1ccc(-c2nc(NC(=O)c3ccc([N+](=O)[O-])s3)c3cnn(-c4cccc(Cl)c4)c3n2)cn1` [Compound 6-45, N-(1-(3-chlorophenyl)-6-(6-(2-(2-ethoxyethoxy)ethoxy)pyridin-3-yl)-1H-pyrazolo[3,4-d]pyrimidin-4-yl)-5-nitrothiophene-2-carboxamide], the CC50 in assay [1] amounted to 580 nM; in assay [3] it was 570 nM. In addition, the LC50 in assay [2] (Table 6, MTS) turned out to be 220 nM.
With `O=C(Nc1nc(-c2ccc(F)nc2)nc2c1cnn2-c1ccccc1)c1ccc([N+](=O)[O-])s1` [Compound 5-28, N-(6-(6-fluoropyridin-3-yl)-1-phenyl-1H-pyrazolo[3,4-d]pyrimidin-4-yl)-5-nitrothiophene-2-carboxamide], the CC50 came out at 590 nM in assay [1] and 280 nM in assay [3]. Moreover, in assay [2] (Table 5, MTS), the LC50 is 130 nM.
Take `O=C(Nc1nc(-c2ccc(F)cc2)nc2c1cnn2C1CCCCC1)c1ccc([N+](=O)[O-])s1` [Compound 10-13, N-(1-cyclohexyl-6-(4-fluorophenyl)-1H-pyrazolo[3,4-d]pyrimidin-4-yl)-5-nitrothiophene-2-carboxamide]: the CC50 in assay [1] was found to be 1730 nM; in assay [3], 2620 nM. In addition, the LC50 in assay [2] (Table 10, MTS) turned out to be 700 nM.
As to `O=C(Nc1nc(-c2ccc(Cl)cc2F)nc2c1cnn2-c1ccc(F)cc1)c1ccc([N+](=O)[O-])s1` [Compound 6-128, N-(6-(4-chloro-2-fluorophenyl)-1-(4-fluorophenyl)-1H-pyrazolo[3,4,d]pyrimidin-4-yl)-5-nitrothiophene-2-carboxamide], the CC50 stood at 570 nM in assay [1] and 310 nM in assay [3]. Also, the LC50 in assay [2] (Table 6, MTS) came out at 70 nM.
For `O=C(Nc1nc(-c2ccc(C(F)(F)F)cc2)nc2c1cnn2-c1ccccc1)c1ccc([N+](=O)[O-])s1` [Compound 5-39, 5-nitro-N-(1-phenyl-6-(4-(trifluoromethyl)phenyl)-1H-pyrazolo[3,4-d]pyrimidin-4-yl)thiophene-2-carboxamide], the results for the CC50 in assay [1] and in assay [3] were above 10000 nM and 1250 nM, respectively. Further, in assay [2] (Table 5, MTS), the LC50 stood at 320 nM.
In the case of `O=C(Nc1nc(-c2ccc(F)nc2)nc2c1cnn2-c1cccc(Cl)c1)c1ccc([N+](=O)[O-])s1` [Compound 6-36, N-(1-(3-chlorophenyl)-6-(6-fluoropyridin-3-yl)-1H-pyrazolo[3,4-d]pyrimidin-4-yl)-5-nitrothiophene-2-carboxamide], the CC50 came out at 2800 nM in assay [1] and 670 nM in assay [3]. Besides, the LC50 in assay [2] (Table 6, MTS) is 90 nM.
With `O=C(Nc1nc(-c2ccc(F)nc2)nc2c1cnn2-c1ccc(F)cc1)c1ccc([N+](=O)[O-])s1` [Compound 6-116, N-(1-(4-fluorophenyl)-6-(6-fluoropyridin-3-yl)-1H-pyrazolo[3,4-d]pyrimidin-4-yl)-5-nitrothiophene-2-carboxamide], the CC50 in assay [1] came out at 550 nM; in assay [3], 500 nM. The LC50 in assay [2] (Table 6, MTS) was found to be 90 nM.
